Measured values reported in patent US20240246964A1 (Arbutus Biopharma Corporation, priority 2021, published 2024).
pEC50, pIC50: −log10 of the molar value.

Columns and labels:
human PD-L1 = human PD-L1 (Homo sapiens (Human), UniProt Q9NZQ7); assay: T cell activation luciferase reporter cell culture system (T Cell Activation Assay); assay type: cell-based; conditions: luciferase reporter assay; PD-L1 aAPC/CHO-K1 cells with PD-1 effector Jurkat T cells
[1] = biological target: PD-L1 His protein / PD-1 Fc protein (Homo sapiens (Human), UniProt Q9NZQ7); assay: HTRF Assay (PD-1/PD-L1 interaction); assay type: binding; conditions: PD-L1 His 6 nM, PD-1 Fc 6 nM
Sequence of PD-L1 His protein / PD-1 Fc protein (Q9NZQ7 19-238): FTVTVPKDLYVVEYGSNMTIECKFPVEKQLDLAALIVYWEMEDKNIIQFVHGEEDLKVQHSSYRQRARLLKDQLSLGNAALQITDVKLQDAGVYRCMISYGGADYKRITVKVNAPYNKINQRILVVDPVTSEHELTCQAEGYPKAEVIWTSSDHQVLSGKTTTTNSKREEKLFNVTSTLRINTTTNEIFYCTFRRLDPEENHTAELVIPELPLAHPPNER

Sequence of human PD-L1 (Q9NZQ7 19-290): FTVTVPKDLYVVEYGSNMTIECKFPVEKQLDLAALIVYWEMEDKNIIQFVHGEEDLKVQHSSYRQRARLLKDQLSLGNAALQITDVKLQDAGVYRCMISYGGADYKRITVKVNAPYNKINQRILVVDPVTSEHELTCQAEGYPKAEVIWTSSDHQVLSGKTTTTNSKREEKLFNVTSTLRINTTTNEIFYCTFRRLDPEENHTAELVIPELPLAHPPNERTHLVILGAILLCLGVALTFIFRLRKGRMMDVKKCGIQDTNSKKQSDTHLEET

Compound | pEC50 (human PD-L1) | pIC50 [1]
COc1cc(-c2nccc(-c3cccc(-c4ccc(CNC5CCN(C(C)=O)CC5)c(OC)n4)c3C)c2Cl)ccc1CNC1CCN(C(C)=O)CC1 [Example 399, 1-(4-(((6-(3-(2-(4-(((1-acetylpiperidin-4-yl)amino)methyl)-3-methoxyphenyl)-3-chloropyridin-4-yl)-2-methylphenyl)-2-methoxypyridin-3-yl)methyl)amino)piperidin-1-yl)ethan-1-one] | 7.11 | 9.73
COc1nc(-c2cccc(-c3ccnc(-c4ccc5c(CNC6CCOCC6)cn(C)c5c4)c3Cl)c2Cl)ccc1CNC[C@@H]1CCC(=O)N1 [Compound 42, (S)-5-((((6-(2-chloro-3-(3-chloro-2-(1-methyl-3-(((tetrahydro-2H-pyran-4-yl)amino)methyl)-1H-indol-6-yl)pyridin-4-yl)phenyl)-2-methoxypyridin-3-yl)methyl)amino)methyl)pyrrolidin-2-one] | 7.05 | 10.00
COc1cc(-c2nccc(-c3cccc(-c4ccc(CNC5CCN(C(C)=O)CC5)c(OC)n4)c3Cl)c2Cl)ccc1CN1CCC(NC(C)=O)CC1 [Example 325, N-(1-(4-(4-(3-(5-(((1-Acetylpiperidin-4-yl)amino)methyl)-6-methoxypyridin-2-yl)-2-chlorophenyl)-3-chloropyridin-2-yl)-2-methoxybenzyl)piperidin-4-yl)acetamide] | 7.40 | 8.56
COc1cc(-c2nccc(-c3cccc(-c4ccc(CNC[C@@H]5CCC(=O)N5)c(OC)n4)c3Cl)c2Cl)cc(C)c1CN(C)C[C@@H]1CCC(=O)N1 [Compound 117, (S)-5-((((6-(2-chloro-3-(3-chloro-2-(3-methoxy-5-methyl-4-((methyl(((S)-5-oxopyrrolidin-2-yl)methyl)amino)methyl)phenyl)pyridin-4-yl)phenyl)-2-methoxypyridin-3-yl)methyl)amino)methyl)pyrrolidin-2-one] | 7.51 | 8.89
COc1cc(-c2nccc(-c3cccc4c3CC[C@@H]4Oc3nc(OC)c(CNC[C@@H]4CCC(=O)N4)cc3C(F)(F)F)c2Cl)ccc1CNC[C@@H]1CCC(=O)N1 [Example 269, (S)-5-((((6-(((S)-4-(3-chloro-2-(3-methoxy-4-(((((S)-5-oxopyrrolidin-2-yl)methyl)amino)methyl)phenyl)pyridin-4-yl)-2,3-dihydro-1H-inden-1-yl)oxy)-2-methoxy-5-(trifluoromethyl)pyridin-3-yl)methyl)amino)methyl)pyrrolidin-2-one] | 8.26 | 7.90
COc1nc(-c2cccc(-c3nccc(-c4ccc(CN5CC6(CNC(=O)C6)C5)c(OC)n4)c3Cl)c2Cl)ccc1CN1CCC(O)CC1 [Compound 681, 2-((3′-Chloro-2′-(2-chloro-3-(5-((4-hydroxypiperidin-1-yl)methyl)-6-methoxypyridin-2-yl)phenyl)-6-methoxy-[2,4′-bipyridin]-5-yl)methyl)-2,6-diazaspiro[3.4]octan-7-one] | 7.63 | 8.97
COc1nc(-c2cccc(-c3ccnc(-c4ccc5c(CNC6CCN(C(C)=O)CC6)cn(C)c5c4)c3Cl)c2Cl)ccc1CNC[C@@H]1CCC(=O)N1 [Compound 28, (S)-5-((((6-(3-(2-(3-(((1-acetylpiperidin-4-yl)amino)methyl)-1-methyl-1H-indol-6-yl)-3-chloropyridin-4-yl)-2-chlorophenyl)-2-methoxypyridin-3-yl)methyl)amino)methyl)pyrrolidin-2-one] | 7.32 | 8.92
COc1nc(-c2cccc(-c3ccnc(-c4cc(OC)c5nc(CN6CC(C)(C#N)C6)cn5c4)c3Cl)c2Cl)ccc1CNC1CCN(C(C)=O)CC1 [Example 477, 1-((6-(4-(3-(5-(((1-Acetylpiperidin-4-yl)amino)methyl)-6-methoxypyridin-2-yl)-2-chlorophenyl)-3-chloropyridin-2-yl)-8-methoxyimidazo[1,2-a]pyridin-2-yl)methyl)-3-methylazetidine-3-carbonitrile] | 5.13 | 7.67
COc1cc(-c2nccc(-c3ccnc(-c4ccc5c(CNC[C@@H]6CCC(=O)N6)cn(C)c5c4)c3Cl)c2Cl)ccc1CNC[C@@H]1CCC(=O)N1 [Compound 14, (S)-5-(((4-(3,3′-dichloro-2′-(1-methyl-3-(((((S)-5-oxopyrrolidin-2-yl)methyl)amino)methyl)-1H-indol-6-yl)-[4,4′-bipyridin]-2-yl)-2-methoxybenzyl)amino)methyl)pyrrolidin-2-one] | 6.78 | 9.22
COc1cc(-c2nccc(-c3cccc4c3CC[C@@H]4Oc3nc(OC)c(CN4CC5(CNC(=O)C5)C4)cc3C(F)(F)F)c2Cl)cc(F)c1CN1CC2(CNC(=O)C2)C1 [Example 306, (S)-2-(4-(3-chloro-4-(1-((6-methoxy-5-((7-oxo-2,6-diazaspiro[3.4]octan-2-yl)methyl)-3-(trifluoromethyl)pyridin-2-yl)oxy)-2,3-dihydro-1H-inden-4-yl)pyridin-2-yl)-2-fluoro-6-methoxybenzyl)-2,6-diazaspiro[3.4]octan-7-one] | 6.44 | 9.12
COc1nc(-c2cccc(-c3ccnc(-c4ccc5c(c4)CNC5)c3Cl)c2Cl)ccc1CN(C)C1CCN(C(C)=O)CC1 [Compound 163, 1-(4-(((6-(2-chloro-3-(3-chloro-2-(isoindolin-5-yl)pyridine-4-yl)phenyl)-2-methoxypyridin-3-yl)methyl)(methyl)amino)piperidin-1-yl)ethan-1-one] | ≤ 5.00 | 8.48
COc1cc(-c2nccc(-c3cccc(-c4ccc(CN5CC6(CNC(=O)C6)C5)c(OC)n4)c3Cl)c2Cl)cnc1CNC[C@@H]1CCC(=O)N1 [Compound 550, (S)-2-((6-(2-Chloro-3-(3-chloro-5′-methoxy-6′-((((5-oxopyrrolidin-2-yl)methyl)amino)methyl)-[2,3′-bipyridin]-4-yl)phenyl)-2-methoxypyridin-3-yl)methyl)-2,6-diazaspiro[3.4]octan-7-one] | 7.60 | 9.55
CNCc1ccc(-c2cccc(-c3ccnc(-c4ccc(CNCCC(=O)O)c(OC)c4)c3Cl)c2Cl)nc1OC [Compound 221, 3-((4-(3-chloro-4-(2-chloro-3-(6-methoxy-5-((methylamino)methyl)pyridin-2-yl)phenyl)pyridin-2-yl)-2-methoxybenzyl)amino)propanoic acid] | 7.19 | 9.70
COc1nc(-c2cccc(-c3ccnc(-c4ccc5c(CNC6CN(C(C)=O)C6)cn(C)c5c4)c3Cl)c2Cl)ccc1CNC[C@@H]1CCC(=O)N1 [Compound 55, (S)-5-((((6-(3-(2-(3-(((1-acetylazetidin-3-yl)amino)methyl)-1-methyl-1H-indol-6-yl)-3-chloropyridin-4-yl)-2-chlorophenyl)-2-methoxypyridin-3-yl)methyl)amino)methyl)pyrrolidin-2-one] | 6.90 | 8.31
COc1cc(-c2nccc(-c3cccc(-c4ccc(CN5CC(C)(O)C5)c(OC)n4)c3Cl)c2Cl)ccc1CN1CC(C)(O)C1 [Example 396, 1-((6-(2-Chloro-3-(3-chloro-2-(4-((3-hydroxy-3-methylazetidin-1-yl)methyl)-3-methoxyphenyl)pyridin-4-yl)phenyl)-2-methoxypyridin-3-yl)methyl)-3-methylazetidin-3-ol] | 7.82 | 8.86
COc1cc(-c2nccc(-c3cccc(-c4ccc(CNC5CC6(COC6)C5)c(OC)n4)c3Cl)c2Cl)cnc1CNC1CC2(COC2)C1 (stereo not drawn) [Compound 429, N-((4-(3-(5-(((2-Oxaspiro[3.3]heptan-6-yl)amino)methyl)-6-methoxypyridin-2-yl)-2-chlorophenyl)-3-chloro-5′-methoxy-[2,3′-bipyridin]-6′-yl)methyl)-2-oxaspiro[3.3]heptan-6-amine] | 7.15 | 8.39
COc1nc(-c2cccc(-c3ccnc(-c4ccc5c(CN(C)C6CCN(C(C)=O)CC6)nn(C)c5c4)c3Cl)c2Cl)ccc1CNC[C@@H]1CCC(=O)N1 [Compound 168, (S)-5-((((6-(3-(2-(3-(((1-acetylpiperidin-4-yl)(methyl)amino)methyl)-1-methyl-1H-indazol-6-yl)-3-chloropyridin-4-yl)-2-chlorophenyl)-2-methoxypyridin-3-yl)methyl)amino)methyl)pyridine1332ne-2-one] | 7.90 | 8.44
COc1nc(-c2cccc(-c3ccnc(-c4ccc5c(c4)CN(CCNC[C@@H]4CCC(=O)N4)C5=O)c3Cl)c2Cl)cc(F)c1CNC[C@@H]1CCC(=O)N1 [Compound 178, 5-(3-chloro-4-(2-chloro-3-(4-fluoro-6-methoxy-5-(((((S)-5-oxopyrrolidin-2-yl)methyl)amino)methyl)pyridine-2-yl)phenyl)pyridine-2-yl)-2-(2-((((S)-5-oxopyrrolidin-2-yl)methyl)amino)ethyl)isoindolin-1-one] | 6.84 | 8.90
COc1cc(-c2nccc(-c3cccc(-c4ccc(CNC[C@@H]5CCC(=O)N5)c(OC)n4)c3Cl)c2Cl)cc(C)c1CNC[C@H](C)O [Compound 114, (S)-5-((((6-(2-chloro-3-(3-chloro-2-(4-((((S)-2-hydroxypropyl)amino)methyl)-3-methoxy-5-methylphenyl)pyridin-4-yl)phenyl)-2-methoxypyridin-3-yl)methyl)amino)methyl)pyrrolidin-2-one] | 7.09 | 9.05
CNCc1ccc(-c2cccc(-c3ccnc(-c4cc(CN5CC[C@H](C(=O)O)C5)cc(OC)c4)c3Cl)c2Cl)nc1OC [Compound 171, (S)-1-(3-(3-chloro-4-(2-chloro-3-(6-methoxy-5-((methylamino)methyl)pyridine-2-yl)phenyl)pyridine-2-yl)-5-methoxybenzyl)pyrrolidine-3-carboxylic acid] | 6.17 | 8.78
COc1nc(-c2cccc(-c3ccnc(-c4cc(OC)c5nc(CN6CC7(COC7)C6)nn5c4)c3Cl)c2Cl)ccc1CNC1CCN(C(C)=O)CC1 [Example 698, 1-(4-(((6-(3-(2-(2-((2-Oxa-6-azaspiro[3.3]heptan-6-yl)methyl)-8-methoxy-[1,2,4]triazolo[1,5-a]pyridin-6-yl)-3-chloropyridin-4-yl)-2-chlorophenyl)-2-methoxypyridin-3-yl)methyl)amino)piperidin-1-yl)ethan-1-one] | 6.58 | 9.85
